Publication PMC11253855, “Phosphonodiamidate prodrugs of phosphoantigens (ProPAgens) exhibit potent Vγ9/Vδ2 T cell activation and eradication of cancer cells” (RSC Medicinal Chemistry, 2024)

Tested on: Vγ9/Vδ2 T cells
Test: In vitro Vγ9/Vδ2 T cell activation assay (PBMCs, CD69+ CD25+ by flow cytometry)
Assay type: cell-based, human
Details: Homo sapiens, T-cell, read-out: EC50 (activation of Vγ9/Vδ2 T cells)
Description: Subsequently, we studied the ability of these HMBP phosphonodiamidate ProPAgens to activate Vγ9/Vδ2 T cells and elicit their lysis of cancer cells in vitro. For this, peripheral blood mononuclear cells (PBMCs) derived from healthy donors and containing Vγ9/Vδ2 T cells were incubated with increasing concentrations of zoledronate or phosphonodiamidate HMBP ProPAgens 9a–d and 14a–d (up to 100 μM) (Fig. 4). Peripheral blood γδ T cells lack appreciable levels of surface CD69 or CD25 under steady-state conditions, but TCR stimulation upregulates both T cell activation markers.[6] Thus, PAg-responsive Vγ9/Vδ2 T cells were then assessed for the upregulation of CD69 and CD25.
Fig. 4 In vitro phosphonodiamidate ProPAgen-mediated activation of Vγ9/Vδ2 T cells, following overnight incubation with zoledronate, and HMBP ProPAgens 9a–d and 14a–d. Levels of activation are represented as % of Vγ9/Vδ2 T cells that are CD69+ CD25+. Data is shown as mean ± SE (n = 4). (A) Activation of Vγ9/Vδ2 stimulated by phosphonodiamidate ProPAgens 9a–d. (B) Activation of Vγ9/Vδ2 stimulated by ProPAgens 14a–d. (C) Activation of Vγ9Vδ2 stimulated by zoledronate (Zol). (D) EC50 values were calculated using GraphPad Prism v9 based on the results of the activation assay.
As for the activation of Vγ9/Vδ2 T cells by the phosphonodiamidate ProPAgens (9a–d and 14a–d), these were initially tested using a concentration range from […] to 100 μM (Fig. 4A and B).
Healthy donor peripheral blood mononuclear cells (PBMCs) were harvested as previously described.[20] To assess the activation of Vγ9/Vδ2 T cells, PBMCs were seeded into U-bottom tissue culture-treated 96-well plates at a cell density of 500 000 cells per well. The cells were incubated with medium-only (control), in the presence of zoledronate at 10 pM to 100 μM, and with HMBP ProPAgens initially at 10 pM to 100 μM, and then at 1 aM to 100 μM for compounds 9d and 14d in a separate experiment. The cells were incubated at 37 °C/5% CO2 overnight, and stained by flow cytometry for the following markers: viability (Zombie Aqua 1 : 400), CD3 (BV421 1 : 100), CD8 (BV650 1 : 200), Vγ9 (PEcy5 1 : 400), Vδ2 (APC 1 : 200), CD69 (PE 1 : 25), CD25 (FITC 1 : 100). The samples were acquired via LSRFortessa X20 (BD Biosciences), and the data obtained were analyzed using FlowJo v10 and GraphPad Prism v9 software.

SMILES | EC50 [nM]
C/C(=C\CC(F)(F)P(=O)(N[C@@H](C)C(=O)OC(C)(C)C)N[C@@H](C)C(=O)OC(C)(C)C)CO [9c, Di-tert-butyl 2,2′-((((E)-1,1-difluoro-5-hydroxy-4-methylpent-3-en-1-yl)phosphoryl)bis(azanediyl))(2S,2′S)-dipropionate] | 1500
COC(=O)[C@H](C)NP(=O)(N[C@@H](C)C(=O)OC)C(F)(F)C/C=C(\C)CO [9a, Dimethyl 2,2′-((((E)-1,1-difluoro-5-hydroxy-4-methylpent-3-en-1-yl)phosphoryl)bis(azanediyl))(2S,2′S)-dipropionate] | 191
C/C(=C\CCP(=O)(N[C@@H](C)C(=O)OC(C)C)N[C@@H](C)C(=O)OC(C)C)CO [14b, Diisopropyl 2,2′-((((E)-5-hydroxy-4-methylpent-3-en-1-yl)phosphoryl)bis(azanediyl))(2S,2′S)-dipropionate] | 87
C/C(=C\CCP(=O)(N[C@@H](C)C(=O)OC(C)(C)C)N[C@@H](C)C(=O)OC(C)(C)C)CO [14c, Di-tert-butyl 2,2′-((((E)-5-hydroxy-4-methylpent-3-en-1-yl)phosphoryl)bis(azanediyl))(2S,2′S)-dipropionate] | 6100

Tested on: Vγ9/Vδ2 T cells
Test: not given
Details: Fig. 1A legend, no reference given; read-out: EC50 (activator of Vγ9/Vδ2 T cells); cited from earlier work

SMILES | EC50 [nM]
C/C(=C\COP(=O)(O)OP(=O)(O)O)CO [HMBPP, (E)-4-hydroxy-3-methyl-but-2-enyl pyrophosphate] | 0.06 to 0.5
O=P(O)(O)C(O)(Cn1ccnc1)P(=O)(O)O [Zoledronate, zoledronate] | 3 to 3000
O=P(O)(O)C(O)(Cc1cccnc1)P(=O)(O)O [risedronate] | 80 to 5000
C=C(C)CCOP(=O)(O)OP(=O)(O)O [IPP, isopentenyl pyrophosphate] | 1000 to 10000

Same assay, conditions: read-out: EC50 (activator of Vγ9/Vδ2 T cells); cited from earlier work

SMILES | EC50 [nM]
C/C(=C\COP(=O)(O)O)CO [HMBP, (E)-4-Hydroxy-3-methylbut-2-enyl monophosphate] | 4000
